The subject of one data set is Myzus persicae. The data set can be described thus: Efficacy against Myzus persicae, cabbage leaf dip test. The data set is classed as in vivo. Conditions: foliar. An excerpt: (§1) Solvent: 7 parts by weight of dimethylformamide
The test system of another data set is Aphis gossypii. The data set can be described thus: Efficacy against Aphis gossypii, cotton leaf dip test. The class given is in vivo. Conditions: foliar, 24 h, after 1 d.
Description: as §1

In the next data set the test system is Pyricularia oryzae. The class given is cell-based. The note with it: dose 0.015 ppm; 3 days of incubation.
Data set [1] relates to Phaedon cochleariae larvae. Briefly: Efficacy against Phaedon cochleariae larvae, cabbage leaf dip test. Conditions: for mortality at 1 ppm: read-out: Mortality in % after 4d, dose 1 ppm.
In a further data set the test system is Phytophthora cryptogea. The data set can be described thus: Efficacy against Phytophthora cryptogea (Test in vitro - Microtest). Conditions: dose 0.03 ppm; 4 days of incubation, optical density.
For the next data set, the system named is Gibberella zeae. The class given is cell-based. Conditions: dose 3 ppm; 4 days of incubation, optical density.
Where [2] appears, read: 144 h, after 6 d, read-out: Mortality in % after 6d.
Setting [3] is: Phaedon cochleariae, in Brassica oleracea, foliar, 96 h, after 4 d.
[4] abbreviates: 24 h, after 1 d, read-out: Mortality in % after 1d.
Setting [5] is: Phaedon cochleariae, in Brassica oleracea, foliar, 96 h, read-out: Mortality in % after 4d, dose 4 ppm, after 4 d.
Setting [6] is: Phaedon cochleariae, in Brassica oleracea, foliar, 144 h, read-out: Mortality in % after 6d, dose 4 ppm, after 6 d.
Setting [7] is: Phaedon cochleariae, in Brassica oleracea, foliar, 144 h, read-out: Mortality in % after 6d, dose 200 ppm, after 6 d.

Where “and” joins values, the source holds several entries; their conditions need not be identical. Identical values can stand only once. Like-named read-outs stand apart in the source and are kept apart here.

Description for Phytophthora cryptogea: The microtest was performed in liquid medium with potato-dextrose broth (PDB) using microtitre plates.
A mycelium suspension of Phytophthora cryptogea was used for inoculation. After 4 days of incubation by darkness under shaking (10 Hrz), the optical density in each cavity was evaluated with the aid of a microtitre plate reader.

For `CC(C)(C)C(O)(CCc1ccc(Cl)cc1)Cn1cncn1` (stereo not shown) [Tebuconazole, tebuconazole], in the data set on Myzus persicae (setting [2]), the mortality at 200 ppm stood at 0%.

`N#Cc1nn(-c2c(Cl)cc(C(F)(F)F)cc2Cl)c(N)c1[S+]([O-])C(F)(F)F` (stereo not shown) [Fipronil, fipronil] displayed a mortality at 100 ppm in the data set on Aphis gossypii (dose 100 ppm) of 40%.

`OC(Cc1ccccc1Cl)(Cn1nc[nH]c1=S)C1(Cl)CC1` (stereo not shown) [Prothioconazole, prothioconazole]: the mortality at 200 ppm with Myzus persicae (setting [2]) stood at 0%; in data set [1] (Phaedon cochleariae, in Brassica oleracea, foliar, 96 h, read-out: Mortality in % after 4d, dose 200 ppm, after 4 d), 0%. For the same compound, the Efficacy in % with Pyricularia oryzae is given as 12%. Besides, the mortality at 1 ppm in data set [1] (setting [3]) is 0%.

As to `CC(C)(C)C(O)C(Oc1ccc(Cl)cc1)n1cncn1` (stereo not shown) [Triadimenol, triadimenol], the mortality at 200 ppm in the data set on Myzus persicae (setting [4]) was determined as 10%. The mortality at 0.4 ppm in data set [1] (Phaedon cochleariae, in Brassica oleracea, foliar, 144 h, read-out: Mortality in % after 6d, dose 0.4 ppm, after 6 d) was 0%.

For “5-fluoro-1,3-dimethyl-N-[2-(1,3-dimethyl)-but-2-ol-yl]-1H-pyrazole-4-carboxamide [Compound A]”, the “Mortality in % after 4d” value in data set [1] (dose 200 ppm, after 4 d) amounted to 0%.

`CN/C(=N\[N+](=O)[O-])NCc1cnc(Cl)s1` [Clothianidin, clothianidin]: the mortality at 0.16 ppm was 10% with Myzus persicae (setting [4]) and 30% in the data set on Myzus persicae (setting [2]). Besides, the mortality at 0.8 ppm in the data set with Myzus persicae (setting [4]) came to 70%; in the data set on Myzus persicae (setting [2]), 55%; in data set [1] (Phaedon cochleariae, in Brassica oleracea, foliar, 144 h, read-out: Mortality in % after 6d, dose 0.8 ppm, after 6 d), 0%. Besides, the mortality at 4 ppm in data set [1] (setting [5]) came out at 60%; in data set [1] (setting [6]), 20%. In data set [1] (dose 4 ppm, after 6 d), the “Mortality in % after 6d” value is reported as 40%.

Take `Nc1nc(N)nc(NC2CC2)n1` [Cyromazine, cyromazine]: the mortality at 20 ppm in data set [1] (Phaedon cochleariae, in Brassica oleracea, foliar, 144 h, read-out: Mortality in % after 6d, dose 20 ppm, after 6 d) is 5%.

For the compound `CC1=NNC(=O)N(/N=C/c2cccnc2)C1` [Pymetrozine, pymetrozine], the mortality at 0.8 ppm in the data set with Myzus persicae (setting [4]) was 30%.

In the case of spinosad, the “Mortality in % after 4d” value in data set [1] (dose 0.8 ppm, after 4 d) was 50%. In the data set on Phytophthora cryptogea, this compound came in with an Efficacy in % of 5%.

As to `CC(C)C1CCC(Cc2ccc(Cl)cc2)C1(O)Cn1cncn1` (stereo not shown) [Ipconazole, ipconazole], in the data set on Myzus persicae (setting [4]), the mortality at 200 ppm stood at 0%.

With `N#Cc1c[nH]cc1-c1cccc2c1OC(F)(F)O2` [Fludioxonil, fludioxonil], the mortality at 200 ppm in the data set on Myzus persicae (setting [4]) was determined as 0%; in data set [1] (setting [7]), 5%.

As to `CON=C(C(=O)OC)c1ccccc1CON=C(C)c1cccc(C(F)(F)F)c1` [Trifloxystrobin, trifloxystrobin], the mortality at 200 ppm with Myzus persicae (setting [2]) came out at 20%.

Regarding `CCOP(=O)(NC(C)C)Oc1ccc(SC)c(C)c1` (stereo not shown) [Fenamifos, fenamifos], the “Mortality in % after 6d” value in data set [1] (dose 20 ppm, after 6 d) is recorded as 75%.

`O=[N+]([O-])NC1=NCCN1Cc1ccc(Cl)nc1` [Imidacloprid, imidacloprid]: the mortality at 0.16 ppm in the data set on Myzus persicae (setting [4]) worked out at 30%. Also, the mortality at 4 ppm in data set [1] (setting [5]) worked out at 35%. For the same compound, the Efficacy in % with Gibberella zeae turned out to be 22%.

Consider `N#C/N=C1\SCCN1Cc1ccc(Cl)nc1` [Thiacloprid, thiacloprid], for which the mortality at 4 ppm in data set [1] (setting [6]) was 25%.

With `O=C(NCCc1ncc(C(F)(F)F)cc1Cl)c1ccccc1C(F)(F)F` [Compound 1, N-{2-[3-chloro-5-(trifluoromethyl)-2-pyridinyl]ethyl}-2-trifluoromethylbenzamide], the mortality at 200 ppm with Aphis gossypii (dose 200 ppm) is 10%; in the data set on Myzus persicae (setting [4]), 0%; in the data set on Myzus persicae (setting [2]), 0%; in data set [1] (setting [7]) it was 0%. The compound further yielded a mortality at 20 ppm with Myzus persicae (24 h, dose 20 ppm, after 1 d) of 0%. Besides, in data set [1] (setting [3]), the mortality at 1 ppm is 0%. In data set [1] (Phaedon cochleariae, in Brassica oleracea, foliar, 144 h, read-out: Mortality in % after 6d, dose 0.2 ppm, after 6 d), the mortality at 0.2 ppm came out at 0%. Besides, the “Mortality in % after 4d” value in data set [1] (dose 200 ppm, after 4 d) is 5% and 15%. The Efficacy in % in the data set with Gibberella zeae was determined as 41%; with Phytophthora cryptogea, 13%.
